# Legend:
# Format in all cases: cell-based
# Human GPR120 short form [1] = target: T1, Human GPR120 short form (Homo sapiens, UniProt Q5NUL3); assay: Human GPR120 calcium flux assay, Procedure Calcium A (2500 cells/well)
# T1 construct: expressed in transfected cells
# T1 sequence (Q5NUL3 1-361): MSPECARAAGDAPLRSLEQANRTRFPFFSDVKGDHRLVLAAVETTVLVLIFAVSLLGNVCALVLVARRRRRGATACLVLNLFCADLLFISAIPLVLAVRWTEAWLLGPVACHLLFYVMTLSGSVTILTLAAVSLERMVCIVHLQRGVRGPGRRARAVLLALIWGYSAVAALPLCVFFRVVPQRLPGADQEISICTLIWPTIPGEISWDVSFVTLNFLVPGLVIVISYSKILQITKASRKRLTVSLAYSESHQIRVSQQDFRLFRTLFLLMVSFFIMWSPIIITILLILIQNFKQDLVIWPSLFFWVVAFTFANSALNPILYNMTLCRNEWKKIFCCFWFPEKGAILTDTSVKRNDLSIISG
# From the text: Human GPR120 in Calcium Flux Assay
# This in vitro assay serves to assess test compound agonist activity against the short splice variant (SVS with Accession number NM_001195755.1 confirmed by sequencing data) of the GPR120 receptor. The Human Short splice variant #2 (NM_001195755.1) is missing an in-frame coding exon compared to variant 1 (the Human Long splice variant NM_181745.3), resulting in a shorter isoform (GPR120-S) lacking a 16 aa protein segment compared to isoform GPR120-L. The assay platform utilizes HEK-293 cells stably transfected to express the Human GPR120 short form. These cells are first loaded with the Ca^+2 sensitive dye, Fluo-4 NW. Upon stimulation, intracellular released Ca^+2 can bind to the dye and alter its fluorescence intensity. This increase in fluorescence signal, and thus the flux in intracellular [Ca^2+], is detected and quantitated by fluorescence imaging using a FLIPR reader. The effect of the agonist is measured as a function of concentration and used to calculate an EC50 based upon a response curve.
# In this procedure 2500 cells/well were employed.
# A Human GPR120 clone (Genbank accession number NM_001195755.1) was placed into the pcDNA3.1 mammalian expression vector carrying the neomycin resistance gene. A stable mammalian cell was generated by placing the above clone into a HEK293 background. Clonal cells responding to long chain fatty acids had expression levels of GPR120 confirmed by RT-qPCR. Human HEK-GPR120 cells were cultured in Dulbecco's Modified Eagle's Medium (DMEM)/F12 medium supplemented with 10% fetal bovine serum (FBS), 1% L-Glutamine and 1% penicillin/streptomycin and 0.5 mg/ml G-418. Cells were split 2 times a week to keep the cells in the log-phase growth.
# In preparation for the assay, HEK cells stably transfected with Human GPR120 (2.5K cells per well in 25 uL growth medium) were seeded into 384-well plates and then incubated overnight (37° C., 5% CO2). The next day, the media was changed to 20 μL assay buffer and the cell starved for 1 h at 37° C. The dye loading solution (2× dye) was prepared using 10 mL assay buffer, 100 μL of 250 mM probenecid, 1 bottle of Component A, and 20 μl of dye in DMSO. Twenty μL of the 2× dye loading buffer was then added to each well. The plates were incubated at 37° C. for 30 min, then at room temperature for an additional 15 minutes, before performing the assay on FLIPR.
# The assay was performed on a FLIPR plate reader using the following parameters. Baseline was read for 10 seconds at 1 sec intervals. The program was set to transfer 10 μL of ligand from compound plate to cell plate after baseline reading. Aspiration was executed at: 10 μL/sec speed, 4.6 μL height, Dispensing was executed at: 30 μL/sec speed, 45 μL height. After compound addition, each well was read for 300 sec, with measurements collected at 1 sec intervals.
# The kinetic data from the FLIPR was based upon a 5 minute window for data collection. The fluorescence of each sample well was used for individual calculations of a normalized RFU value, which was defined as maximum response minus the minimum response. The normalized fluorescence reading (RFU) was calculated as follows: RFU=Fmax−Fmin
# The Fitting Equation was: Y=Bottom+(Top-Bottom)/(1+10^((Log EC50−X)*HillSlope)), where X is the log of the concentration and Y is the response.
# Human GPR120 short form [2] = target: T1, Human GPR120 short form; assay: Human GPR120 calcium flux assay, Procedure Calcium B (4200 cells/well)
# Summary of the method: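 HEK293 cells stably expressing human GPR120 (NM_001195755.1), 4200 cells/well, starved 1 h and loaded with Fluo-4 NW plus probenecid. Ligand-evoked calcium flux read on FLIPR for 300 s after a 10 s baseline. RFU = Fmax−Fmin; EC50 from four-parameter concentration-response fit.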
# human GPR40 = target: T2, human GPR40 (Homo sapiens, UniProt O14842); assay: GPR40 calcium flux assay, human GPR40; details: HEK293 cells stably expressing GPR40; table does not say human or rat
# T2 construct: expressed in transfected cells
# T2 sequence (O14842 whole entry): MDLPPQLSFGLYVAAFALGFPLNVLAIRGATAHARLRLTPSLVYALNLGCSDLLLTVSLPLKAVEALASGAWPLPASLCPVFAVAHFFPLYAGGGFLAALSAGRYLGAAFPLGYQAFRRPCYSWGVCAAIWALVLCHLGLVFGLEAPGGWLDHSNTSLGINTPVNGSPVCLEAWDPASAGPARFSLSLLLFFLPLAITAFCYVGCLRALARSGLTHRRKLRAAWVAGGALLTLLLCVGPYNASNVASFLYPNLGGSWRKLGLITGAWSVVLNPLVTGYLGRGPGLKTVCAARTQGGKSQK
# Summary of the method: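 Cells preincubated 1 h at 37° C. in HBSS, 20 mM HEPES, 0.1% BSA, then Fluo 8 calcium dye 30 min at 37° C. and 15 min at room temperature.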
Compound,EC50 (Human GPR120 short form [1]),EC50 (Human GPR120 short form [2]),EC50 (human GPR40)
"O=C(O)CCc1ccc(OCC2=C(c3ccccc3)CCC2)cc1 [Compound 19, 3-(4-((2-phenylcyclopent-1-en-1-yl)methoxy)phenyl)Propanoic Acid]",1.93 µM,0.603 µM,> 5 µM
"Cc1c(CCC(=O)O)ccc(OCC2=C(c3ccc(Cl)cc3)CCC2(O)C(F)(F)F)c1C (centres unmarked) [Compound 69, 3-[4-[[2-(4-chlorophenyl)-5-hydroxy-5-(trifluoromethyl)cyclopenten-1-yl]methoxy]-2,3-dimethyl-phenyl]Propanoic Acid]",> 5 µM,2.46 µM,> 5 µM
"Cc1ccc(C2=C(COc3ccc(CCC(=O)O)c(F)c3F)CCC2)cc1[N+](=O)[O-] [Compound 92, 3-(2,3-difluoro-4-((2-(4-methyl-3-nitrophenyl)cyclopent-1-en-1-yl)methoxy)phenyl)Propanoic Acid]",1.26 µM,0.373 µM,> 5 µM
"Cc1c(CCC(=O)O)ccc(OCC2=C(c3cc(Cl)cc(Cl)c3)CCC2)c1C [Compound 112, 3-[4-[[2-(3,5-dichlorophenyl)cyclopenten-1-yl]methoxy]-2,3-dimethyl-phenyl]Propanoic Acid′]",2.46 µM,3.07 µM,> 5 µM
"Cc1c(CCC(=O)O)ccc(OCC2=C(c3cccc(N(C)C)c3)CCC2)c1C [Compound 114, 3-[4-[[2-[3-(dimethylamino)phenyl]cyclopenten-1-yl]methoxy]-2,3-dimethyl-phenyl]Propanoic Acid]",> 5 µM,–,> 5 µM
"Cc1ccc(C2=C(COc3ccc(CCC(=O)O)c(C)c3C)CCC2)cc1[N+](=O)[O-] [Compound 115, 3-(2,3-dimethyl-4-((2-(4-methyl-3-nitrophenyl)cyclopent-1-en-1-yl)methoxy)phenyl)Propanoic Acid]",1.12 µM,0.852 µM,> 5 µM
"Cc1cc(OCC2=C(c3ccc(Cl)cc3)CCC2)cc(C)c1CCC(=O)O [Compound 119, 3-(4-((2-(4-chlorophenyl)cyclopent-1-en-1-yl)methoxy)-2,6-dimethylphenyl)Propanoic Acid]",0.895 µM,0.327 µM,> 5 µM
"Cc1c(CCCC(=O)O)ccc(OCC2=C(c3ccc(Cl)cc3)CCC2)c1C [Compound 127, 4-[4-[[2-(4-chlorophenyl)cyclopenten-1-yl]methoxy]-2,3-dimethyl-phenyl]Butanoic Acid]",2.78 µM,0.668 µM,> 5 µM
"CCCc1ccc(C2=C(COc3ccc(CCC(=O)O)c(C)c3C)CCC2)cc1 [Compound 140, 3-[2,3-dimethyl-4-[[2-(4-propylphenyl)cyclopenten-1-yl]methoxy]phenyl]Propanoic Acid]",> 5 µM,–,> 5 µM
"Cc1c(CCC(=O)O)ccc(OCC2=C(c3ccc(C#N)cc3)CCC2)c1C [Compound 146, 3-[4-[[2-(4-cyanophenyl)cyclopenten-1-yl]methoxy]-2,3-dimethyl-phenyl]Propanoic Acid]",1.56 µM,0.208 µM,> 5 µM
"CCOc1ccc(C2=C(COc3ccc(CCC(=O)O)c(C)c3C)CCC2)cc1 [Compound 151, 3-[4-[[2-(4-ethoxyphenyl)cyclopenten-1-yl]methoxy]-2,3-dimethyl-phenyl]Propanoic Acid]",> 5 µM,–,> 5 µM
"Cc1c(CCC(=O)O)ccc(OCC2=C(c3ccc(Cl)c(F)c3)CCC2)c1C [Compound 157, 3-(4-((2-(4-chloro-3-fluorophenyl)cyclopent-1-en-1-yl)methoxy)-2,3-dimethylphenyl)Propanoic Acid]",0.097 µM,0.067 µM,> 5 µM
"CCCc1ccc(C2=C(COc3ccc(CCC(=O)O)c(C)c3C)CCCC2)cc1 [Compound 463, 3-[2,3-dimethyl-4-[[2-(4-propylphenyl)cyclohexen-1-yl]methoxy]phenyl]Propanoic Acid]",4.81 µM,1.62 µM,> 5 µM
"Cc1c(CCC(=O)O)ccc(OCC2=C(c3ccncc3)CCCC2)c1C [Compound 465, 3-[2,3-dimethyl-4-[[2-(4-pyridyl)cyclohexen-1-yl]methoxy]phenyl]Propanoic Acid]",2.17 µM,1.45 µM,> 5 µM
"Cc1c(CCC(=O)O)ccc(OCC2=C(c3ncccn3)CCCC2)c1C [Compound 475, 3-[2,3-dimethyl-4-[(2-pyrimidin-2-ylcyclohexen-1-yl)methoxy]phenyl]Propanoic Acid]",4.48 µM,2.27 µM,> 5 µM
"Cc1c(CCC(=O)O)ccc(OCC2=C(c3ccc(I)cc3)CCCC2)c1C [Compound 476, 3-[4-[[2-(4-iodophenyl)cyclohexen-1-yl]methoxy]-2,3-dimethyl-phenyl]Propanoic Acid]",1.33 µM,0.475 µM,> 5 µM
"Cc1ccc(C2=C(COc3ccc(CCC(=O)O)cc3C)CCCC2)cn1 [Compound 477, 3-[3-methyl-4-[[2-(6-methyl-3-pyridyl)cyclohexen-1-yl]methoxy]phenyl]Propanoic Acid]",1.18 µM,0.256 µM,> 5 µM
"Cc1c(CCC(=O)O)ccc(OCC2=C(c3ccccn3)CCCC2)c1C [Compound 490, 3-[2,3-dimethyl-4-[[2-(2-pyridyl)cyclohexen-1-yl]methoxy]phenyl]Propanoic Acid]",2.19 µM,0.743 µM,> 5 µM
"O=C(O)CCc1cc(F)c(OCC2=C(c3ccc(Cl)cc3)CCC(F)(F)C2)c(F)c1 [Compound 491, 3-[4-[[2-(4-chlorophenyl)-5,5-difluoro-cyclohexen-1-yl]methoxy]-3,5-difluoro-phenyl]Propanoic Acid]",0.532 µM,0.097 µM,> 5 µM
"CC(=O)Nc1ccc(C2=C(COc3ccc(CCC(=O)O)c(C)c3C)CCCC2)cc1 [Compound 495, 3-[4-[[2-(4-acetamidophenyl)cyclohexen-1-yl]methoxy]-2,3-dimethyl-phenyl]Propanoic Acid]",> 5 µM,–,> 5 µM
"Cc1c(CCC(=O)O)ccc(OCC2=C(c3ccc([S+](C)[O-])cc3)CCCC2)c1C (centres unmarked) [Compound 507, 3-[2,3-dimethyl-4-[[2-(4-methylsulfinylphenyl)cyclohexen-1-yl]methoxy]phenyl]Propanoic Acid]",> 5 µM,–,> 10 µM
"Cc1c(CCC(=O)O)ccc(OCC2=C(c3ccc(S(C)(=O)=O)cc3)CCCC2)c1C [Compound 515, 3-[2,3-dimethyl-4-[[2-(4-methylsulfonylphenyl)cyclohexen-1-yl]methoxy]phenyl]Propanoic Acid]",> 5 µM,–,> 5 µM
"O=C(O)CCc1ccc(OCC2=C(c3ccc(Cl)cc3)CCCC2)cc1 [Compound 517, 3-[4-[[2-(4-chlorophenyl)cyclohexen-1-yl]methoxy]phenyl]Propanoic Acid]",> 5 µM,–,> 5 µM

# Reference: patent publication US11230526B1, “Cylcoalkenyl derivatives useful as agonists of the GPR120 and/or GPR40 receptors” (Janssen Pharmaceutica NV, priority 2018, dated 2022)
